Laboratory results taken from patent EP1650209A1, “Griseusin derivatives and their use as antitumor agents” (Oncotest GmbH, priority 2004, dated 2006).
Converted amounts (≈) assume the structure as drawn.

Key:
Experiment in all cases: Proliferation inhibition of cancer cells (propidium iodide fluorescence)
Assay type in all cases: cell-based, human
[1] = system: MEXF 462NL; conditions: Homo sapiens, 96 h, MEXF 462NL cell line, 4 days, read-out: IC50 value
Protocol: (§1) Using various human cancer cells in vitro, the concentrations of the test compounds (A, B, C, D, E, F), which inhibit the proliferation of cancer cells by 50% (IC50) and 70% (IC70) were determined. Specifically, each cell line of bladder cancer (BXF 1218L and T-24), glioblastoma (CNXF 498NL), colic cancer (HCT-116 and HT-29), gastric cancer (GXF 251 L), head and neck cancer (HNXF 536L), non small cell lung cancer (LXF 1121L, LXF 289L, LXF 526L, LXF 529L, LXF 629L and H-460), mammary cancer (MAXF 401NL, MCF-7, MDA-231 and MDA-468), melanoma (MEXF 276L, MEXF 394NL, MEXF 462NL, MEXF 514L and MEXF 520L), ovary cancer (OVXF 1619L, OVXF 899L and OVCAR-3), pancreatic cancer (PAXF 1657L and PANC-1), prostate cancer (22Rv1, DU-145, LNCaP and PC3M), pleuramesothelioma (PXF 1752L), renal cancer (RXF 1781 L, RXF 393NL, RXF 486L and RXF 944L), and uterine cancer (UXF 1138L) is added to a 96-well microtiter plate at a density of 3.6-11.2x10^3 cells per well in RPMI-1640 medium containing 10% fetal calf serum and 0.1% gentamicin and incubated for 24 hours. After 24 hours RPMI-1640 medium containing 10% fetal calf serum and 0.1% gentamicin, together with a test compound, is added thereto. Then, this plate is incubated at 37°C for 4 days in a humidified atmosphere of air containing 5% CO2. Thereafter, the cell culture medium with or without drug was replaced by 200 µl of an aqueous PI solution (7 µg/ml propidium iodide). Applying a freeze thaw cycle to permeabilize intact cell walls, staining of DNA was achieved, and the fluorescence of each well was measured using the Cy-tofluor 4000 microplate reader (excitation 530 nm, emission 620 nm), giving a direct relationship to the total cell number. Proliferation inhibition is expressed as test versus untreated control (T/C-value [%]). IC50 and IC70 values were determined by plotting compound concentration versus cell viability.

[2] = system: UXF 1138L; conditions: Homo sapiens, 96 h, UXF 1138L cell line, 4 days, read-out: IC50 value
Protocol: as §1

[3] = system: LXFL 529L; conditions: Homo sapiens, 96 h, LXFL 529L cell line, 4 days, read-out: IC50 value
Protocol: as §1

[4] = system: MAXF 401NL; conditions: Homo sapiens, 96 h, MAXF 401NL cell line, 4 days, read-out: IC50 value
Protocol: as §1

[5] = system: GXF 251 L; conditions: Homo sapiens, 96 h, GXF 251L cell line, 4 days, read-out: IC50 value
Protocol: as §1

[6] = system: RXF 486L; conditions: Homo sapiens, 96 h, RXF 486L cell line, 4 days, read-out: IC50 value
Protocol: as §1

| IC50 [1] | IC50 [2] | IC50 [3] | IC50 [4] | IC50 [5] | IC50 [6] | Compound |
| --- | --- | --- | --- | --- | --- | --- |
| 0.094 µg/mL (≈ 0.216 µM) | 0.377 µg/mL (≈ 0.868 µM) | 3.87 µg/mL (≈ 8.9 µM) | 0.046 µg/mL (≈ 0.106 µM) | 0.393 µg/mL (≈ 0.905 µM) | 0.288 µg/mL (≈ 0.663 µM) | COC(=O)CC1OC2(OC(C)CC(O)C2O)C2=C(C(=O)c3cccc(O)c3C2=O)C1O (stereo not drawn) [Compound E, 4-hydroxy-deacetylgriseusin B methylester] |
| 1.13 µg/mL (≈ 2.8 µM) | 8.08 µg/mL (≈ 20.1 µM) | 8.95 µg/mL (≈ 22.2 µM) | 0.345 µg/mL (≈ 0.857 µM) | 3.06 µg/mL (≈ 7.62 µM) | 1.11 µg/mL (≈ 2.77 µM) | CC1CC(O)C(O)C2(O1)OC1CC(=O)OC1C1=C2C(=O)c2c(O)cccc2C1=O (stereo not drawn) [Compound A, deacetylgriseusin A, reference compound] |
| 0.029 µg/mL (≈ 0.0671 µM) | 0.302 µg/mL (≈ 0.698 µM) | 0.158 µg/mL (≈ 0.365 µM) | 0.034 µg/mL (≈ 0.0786 µM) | 0.037 µg/mL (≈ 0.0856 µM) | 0.053 µg/mL (≈ 0.123 µM) | COC(=O)CC1OC2(OC(C)CC(=O)C2O)C2=C(C(=O)c3cccc(O)c3C2=O)C1O (stereo not drawn) [Compound F, 4'-dehydro-4-hydroxy-deacetylgriseusin B methylester] |
